For test [1], the target named is T1, human mAChRM1 (Homo sapiens, UniProt P11229).
T1 construct: host or cells: CHO-K1
T1 sequence (P11229 1-460): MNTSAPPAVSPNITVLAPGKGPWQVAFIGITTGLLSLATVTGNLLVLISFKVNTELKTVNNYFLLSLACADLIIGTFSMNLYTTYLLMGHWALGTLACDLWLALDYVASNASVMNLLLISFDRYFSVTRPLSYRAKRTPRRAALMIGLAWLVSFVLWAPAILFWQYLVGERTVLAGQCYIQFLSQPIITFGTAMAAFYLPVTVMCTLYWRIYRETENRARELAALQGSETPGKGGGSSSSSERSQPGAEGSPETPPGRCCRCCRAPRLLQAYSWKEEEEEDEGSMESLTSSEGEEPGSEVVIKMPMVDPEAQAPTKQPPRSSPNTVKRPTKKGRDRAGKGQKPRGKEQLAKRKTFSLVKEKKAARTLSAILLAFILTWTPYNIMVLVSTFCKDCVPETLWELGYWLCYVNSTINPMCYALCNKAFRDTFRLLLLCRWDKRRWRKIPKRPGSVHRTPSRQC
In words: mAChR M1 cell-based functional assay (calcium mobilization), agonist activity upon compound addition, Emax relative to acetylcholine maximum. Particulars: for Agonist Activity Human M1 EC50 / EC50: calcium mobilization upon compound addition; for Emax: relative to the maximum for acetylcholine. The method in brief: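 CHO-K1 cells stably expressing human M1 were loaded with Fluo-4 AM for 50 min at 37 °C. Compound was added 4 s into a 300 s FDSS read at 1 Hz, over 11-point 1:3 dilution curves. Agonism was taken as a concentration-dependent rise in calcium fluorescence ratio, with Emax expressed relative to the acetylcholine maximum from four-parameter logistic fits.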
On the technique in general: Calcium flux is commonly read through the fluorescence of an indicator in the cells.

The target in test [2] is T1, human mAChRM1. The experiment in a line: mAChR M1 cell-based functional assay (calcium mobilization), positive allosteric modulator activity: increase in the EC20 acetylcholine response. Particulars: for Emax: PAM mode; for EC50 / PAM Activity Human M1 EC50: increase in the EC20 acetylcholine response; for EC50: read-out: PAM Activity Human M1 EC50. The method in brief: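 CHO-K1 cells stably expressing human M1, loaded with Fluo-4 AM; calcium flux recorded on FDSS at 1 Hz over 300 s following compound addition. PAM activity is the concentration-dependent increase of an EC20 acetylcholine response; EC50 and Emax from four-parameter logistic fits of 11-point, 1:3 concentration series.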

Structures are written as SMILES. A value given as a limit tells only on which side of the number the result lay.

The source of these data is US20260138978A1, “POSITIVE ALLOSTERIC MODULATORS OF THE MUSCARINIC ACETYLCHOLINE RECEPTOR M1” (Vanderbilt University, priority 2022, published 2026).

Usually Emax stands for the greatest response seen or fitted, relative to the assay's reference. For orientation: EC50 means the concentration that produces a half-maximal response. `Cn1cc2cc(-c3ccc(CN4Cc5ncccc5C4=O)cc3)cc(C(C)(C)O)c2n1` [Compound 36, 6-(4-(7-(2-hydroxypropan-2-yl)-2-methyl-2H-indazol-5-yl)benzyl)-6,7-dihydro-5H-pyrrolo[3,4-b]pyridin-5-one]: on human mAChRM1 [1], the “Agonist Activity Human M1 EC50” value is “inactive”. Moreover, on human mAChRM1 [2], the Emax stood at 67% and the EC50 was 962 nM.

On to `CC(C)(O)c1ccc(-c2cc(F)c(CN3Cc4ncccc4C3=O)c(F)c2)c2ncccc12` [Compound 37, 6-(2,6-difluoro-4-(5-(2-hydroxypropan-2-yl)quinolin-8-yl)benzyl)-6,7-dihydro-5H-pyrrolo[3,4-b]pyridin-5-one], for which the “Agonist Activity Human M1 EC50” value on human mAChRM1 [1] is “inactive”. Moreover, the “PAM Activity Human M1 EC50” value on human mAChRM1 [2] is “inactive”.

For the molecule `CC(C)(O)c1ccc(-c2cc(F)c(CN3Cc4ncccc4C3=O)c(F)c2)c2cccnc12` [Compound 38, 6-(2,6-difluoro-4-(8-(2-hydroxypropan-2-yl)quinolin-5-yl)benzyl)-6,7-dihydro-5H-pyrrolo[3,4-b]pyridin-5-one], on human mAChRM1 [1], the “Agonist Activity Human M1 EC50” value was “inactive”. On human mAChRM1 [2], the Emax came to 59% and the concentration giving a half-maximal response (EC50) was 4310 nM.

Regarding `CC(C)(O)c1cc(-c2cc(F)c(CN3Cc4ncccc4C3=O)c(F)c2)cc2cccnc12` [Compound 39, 6-(2,6-difluoro-4-(8-(2-hydroxypropan-2-yl)quinolin-6-yl)benzyl)-6,7-dihydro-5H-pyrrolo[3,4-b]pyridin-5-one], on human mAChRM1 [1], the EC50 was no less than 10000 nM and the Emax was found to be 8%. Further, at human mAChRM1 [2], the maximum response (Emax) came to 72% and the EC50 came out at 472 nM.

`Cn1cc(-c2cc(F)c(CN3Cc4ncccc4C3=O)c(F)c2)c2ccc(C(C)(C)O)cc21` [Compound 40, 6-(2,6-difluoro-4-(6-(2-hydroxypropan-2-yl)-1-methyl-1H-indol-3-yl)benzyl)-6,7-dihydro-5H-pyrrolo[3,4-b]pyridin-5-one]: the “Agonist Activity Human M1 EC50” value on human mAChRM1 [1] was “inactive”. Also, at human mAChRM1 [2], the maximal effect (Emax) worked out at 73% and the EC50 worked out at 2190 nM.

For `Cn1cc2cc(-c3cc(F)c(CN4Cc5ncccc5C4=O)c(Cl)c3)cc(C(C)(C)O)c2n1` [Compound 41, 6-(2-chloro-6-fluoro-4-(7-(2-hydroxypropan-2-yl)-2-methyl-2H-indazol-5-yl)benzyl)-6,7-dihydro-5H-pyrrolo[3,4-b]pyridin-5-one], the EC50 was no less than 10000 nM at human mAChRM1 [1] and 422 nM at human mAChRM1 [2]. The maximal response (Emax) at human mAChRM1 [1] was found to be 12%; at human mAChRM1 [2], 67%.

Regarding `CC(C)(O)c1cncc(-c2cc(F)c(CN3Cc4ncccc4C3=O)c(F)c2)c1` [Compound 42, 6-(2,6-difluoro-4-(5-(2-hydroxypropan-2-yl)pyridin-3-yl)benzyl)-6,7-dihydro-5H-pyrrolo[3,4-b]pyridin-5-one], the “Agonist Activity Human M1 EC50” value on human mAChRM1 [1] was “inactive”. Further, on human mAChRM1 [2], the Emax turned out to be 48% and the EC50 was no less than 10000 nM.

Turning to `CC(C)(O)c1cccc(-c2cc(F)c(CN3Cc4ncccc4C3=O)c(F)c2)c1` [Compound 43, 6-((3,5-difluoro-3′-(2-hydroxypropan-2-yl)-[1,1′-biphenyl]-4-yl)methyl)-6,7-dihydro-5H-pyrrolo[3,4-b]pyridin-5-one], at human mAChRM1 [1], the “Agonist Activity Human M1 EC50” value was “inactive”. Besides, at human mAChRM1 [2], the maximal effect (Emax) was 64% and the EC50 was determined as 3210 nM.

As for `CC(C)(O)c1ccc(-c2cc(F)c(CN3Cc4ncccc4C3=O)c(C(F)(F)F)c2)cc1` [Compound 44, 6-((3-fluoro-4′-(2-hydroxypropan-2-yl)-5-(trifluoromethyl)-[1,1′-biphenyl]-4-yl)methyl)-6,7-dihydro-5H-pyrrolo[3,4-b]pyridin-5-one], the “Agonist Activity Human M1 EC50” value at human mAChRM1 [1] is “inactive”. For the same molecule, at human mAChRM1 [2], the Emax came to 61% and the EC50 came out at 5680 nM.

For `CC(C)(O)c1ccc(-c2cc(F)c(CN3Cc4ncccc4C3=O)c(Cl)c2)cc1` [Compound 45, 6-((3-chloro-5-fluoro-4′-(2-hydroxypropan-2-yl)-[1,1′-biphenyl]-4-yl)methyl)-6,7-dihydro-5H-pyrrolo[3,4-b]pyridin-5-one], the “Agonist Activity Human M1 EC50” value at human mAChRM1 [1] is “inactive”. Moreover, at human mAChRM1 [2], the Emax turned out to be 66% and the EC50 was 1030 nM.

Turning to `CC(C)(O)c1ccc(-c2cc(Cl)c(CN3Cc4ncccc4C3=O)c(Cl)c2)cc1` [Compound 46, 6-((3,5-dichloro-4′-(2-hydroxypropan-2-yl)-[1,1′-biphenyl]-4-yl)methyl)-6,7-dihydro-5H-pyrrolo[3,4-b]pyridin-5-one], the “Agonist Activity Human M1 EC50” value at human mAChRM1 [1] is “inactive”. Also, on human mAChRM1 [2], the maximal effect (Emax) was 65% and the 50% effective concentration (EC50) stood at 1440 nM.

Regarding `CC(C)(O)c1c(F)cc(-c2cc(F)c(CN3Cc4ncccc4C3=O)c(F)c2)cc1F` [Compound 47, 6-((3,3′,5,5′-tetrafluoro-4′-(2-hydroxypropan-2-yl)-[1,1′-biphenyl]-4-yl)methyl)-6,7-dihydro-5H-pyrrolo[3,4-b]pyridin-5-one], at human mAChRM1 [1], the “Agonist Activity Human M1 EC50” value was “inactive”. On human mAChRM1 [2], the maximal effect (Emax) was found to be 34% and the concentration giving a half-maximal response (EC50) came out at 1830 nM.

For the molecule `CC(C)(O)c1cc(F)c(-c2cc(F)c(CN3Cc4ncccc4C3=O)c(F)c2)cc1F` [Compound 48, 6-((2′,3,5,5′-tetrafluoro-4′-(2-hydroxypropan-2-yl)-[1,1′-biphenyl]-4-yl)methyl)-6,7-dihydro-5H-pyrrolo[3,4-b]pyridin-5-one], at human mAChRM1 [1], the “Agonist Activity Human M1 EC50” value was “inactive”. Further, the “PAM Activity Human M1 EC50” value at human mAChRM1 [2] was “inactive”.

Consider `CC(C)(O)c1ccc(-c2cc(F)c(CN3Cc4ncccc4C3=O)cc2F)cc1` [Compound 49, 6-((2,5-difluoro-4′-(2-hydroxypropan-2-yl)-[1,1′-biphenyl]-4-yl)methyl)-6,7-dihydro-5H-pyrrolo[3,4-b]pyridin-5-one], for which the “Agonist Activity Human M1 EC50” value on human mAChRM1 [1] is “inactive”. At human mAChRM1 [2], the Emax came to 66% and the EC50 was 1200 nM.

Consider `Cc1cc(-c2cc(C(C)(C)O)c3nn(C)cc3c2)cc(F)c1CN1Cc2ncccc2C1=O` [Compound 50, 6-(2-fluoro-4-(7-(2-hydroxypropan-2-yl)-2-methyl-2H-indazol-5-yl)-6-methylbenzyl)-6,7-dihydro-5H-pyrrolo[3,4-b]pyridin-5-one], for which the “Agonist Activity Human M1 EC50” value at human mAChRM1 [1] was “inactive”. For the same molecule, on human mAChRM1 [2], the Emax is 66% and the EC50 amounted to 784 nM.

As to `Cn1nc2cc(C(C)(C)O)ccc2c1-c1cc(F)c(CN2Cc3ncccc3C2=O)c(F)c1` [Compound 51], the “Agonist Activity Human M1 EC50” value at human mAChRM1 [1] was “inactive”. Further, on human mAChRM1 [2], the Emax was 30% and the EC50 was no less than 10000 nM.

Turning to `Cn1nc(-c2cc(F)c(CN3Cc4ncccc4C3=O)c(F)c2)c2ccc(C(C)(C)O)cc21` [Compound 52, 6-(2,6-difluoro-4-(6-(2-hydroxypropan-2-yl)-1-methyl-1H-indazol-3-yl)benzyl)-6,7-dihydro-5H-pyrrolo[3,4-b]pyridin-5-one], the “Agonist Activity Human M1 EC50” value on human mAChRM1 [1] is “inactive”. On human mAChRM1 [2], the Emax was 58% and the EC50 amounted to 9570 nM.

Turning to `Cc1cc(-c2ccc(C(C)(C)O)c3ncccc23)cc(F)c1CN1Cc2ncccc2C1=O` [Compound 53, 6-(2-fluoro-4-(8-(2-hydroxypropan-2-yl)quinolin-5-yl)-6-methylbenzyl)-6,7-dihydro-5H-pyrrolo[3,4-b]pyridin-5-one], at human mAChRM1 [1], the “Agonist Activity Human M1 EC50” value was “inactive”. Further, on human mAChRM1 [2], the maximal response (Emax) came out at 53% and the EC50 was determined as 5870 nM.

Turning to `CCC(O)(CC)c1ccc(-c2cc(F)c(CN3Cc4ncccc4C3=O)c(F)c2)c2cn(C)nc12` [Compound 54, 6-(2,6-difluoro-4-(7-(3-hydroxypentan-3-yl)-2-methyl-2H-indazol-4-yl)benzyl)-6,7-dihydro-5H-pyrrolo[3,4-b]pyridin-5-one], the “Agonist Activity Human M1 EC50” value on human mAChRM1 [1] was “inactive”. Moreover, on human mAChRM1 [2], the maximal effect (Emax) was found to be 66% and the EC50 amounted to 2290 nM.

For `CCC(O)(CC)c1ccc(-c2cc(C)c(CN3Cc4ncccc4C3=O)c(F)c2)c2cn(C)nc12` [Compound 55, 6-(2-fluoro-4-(7-(3-hydroxypentan-3-yl)-2-methyl-2H-indazol-4-yl)-6-methylbenzyl)-6,7-dihydro-5H-pyrrolo[3,4-b]pyridin-5-one], the “Agonist Activity Human M1 EC50” value at human mAChRM1 [1] is “inactive”. Moreover, on human mAChRM1 [2], the maximal response (Emax) was 67% and the EC50 was determined as 2720 nM.

With `Cc1c(C(C)(C)O)ccc(-c2cc(F)c(CN3Cc4ncccc4C3=O)c(F)c2)c1F` [Compound 56, 6-((2′,3,5-trifluoro-4′-(2-hydroxypropan-2-yl)-3′-methyl-[1,1′-biphenyl]-4-yl)methyl)-6,7-dihydro-5H-pyrrolo[3,4-b]pyridin-5-one], on human mAChRM1 [1], the “Agonist Activity Human M1 EC50” value is “inactive”. On human mAChRM1 [2], the Emax turned out to be 50% and the 50% effective concentration (EC50) was 5160 nM.
